Assay results taken from ChEMBL document CHEMBL1143885, “Aryl-indolyl maleimides as inhibitors of CaMKIIdelta. Part 1: SAR of the aryl region” (Bioorg Med Chem Lett, 2008).

Target: Calcium/calmodulin-dependent protein kinase type II subunit delta (Homo sapiens, UniProt Q13557)
Assay: Inhibition of CaMK2delta

Chain of Calcium/calmodulin-dependent protein kinase type II subunit delta (Q13557 whole entry): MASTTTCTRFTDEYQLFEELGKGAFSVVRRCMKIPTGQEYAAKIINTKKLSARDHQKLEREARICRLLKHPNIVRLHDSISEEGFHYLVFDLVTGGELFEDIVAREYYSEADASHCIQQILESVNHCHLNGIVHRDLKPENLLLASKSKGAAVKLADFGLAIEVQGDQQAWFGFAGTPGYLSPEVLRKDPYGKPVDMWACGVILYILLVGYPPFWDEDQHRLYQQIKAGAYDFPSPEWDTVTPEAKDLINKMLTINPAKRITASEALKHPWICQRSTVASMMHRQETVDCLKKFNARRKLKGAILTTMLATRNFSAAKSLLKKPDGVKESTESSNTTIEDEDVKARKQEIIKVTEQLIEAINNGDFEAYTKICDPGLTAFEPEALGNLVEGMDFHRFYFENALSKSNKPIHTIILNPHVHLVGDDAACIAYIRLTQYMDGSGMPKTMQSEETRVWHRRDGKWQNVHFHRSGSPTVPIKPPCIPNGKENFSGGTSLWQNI

| SMILES | IC50 [µM] |
| --- | --- |
| CC(C)(C)OC(=O)NCCCn1cc(C2=C(c3cccs3)C(=O)NC2=O)c2ccccc21 | > 20 |
| CN1C(=O)C(c2ccccc2)=C(c2cn(CCCN)c3ccccc23)C1=O | 15 |
| NCCCn1cc(C2=C(c3cccs3)C(=O)NC2=O)c2ccccc21 | 1.19 |
| NCCCn1cc(C2=C(c3cccc(-c4ccccc4)c3)C(=O)NC2=O)c2ccccc21 | 1.32 |
| NCCCn1cc(C2=C(c3cccc4ccccc34)C(=O)NC2=O)c2ccccc21 | 0.29 |
| NCCCn1cc(C2=C(c3ccccn3)C(=O)NC2=O)c2ccccc21 | 1.58 |
| NCCCn1cc(C2=C(c3ccc4ccccc4n3)C(=O)NC2=O)c2ccccc21 | > 20 |
| Cc1cccc(C2=C(c3cn(CCCN)c4ccccc34)C(=O)NC2=O)c1 | 0.28 |
| NCCCn1cc(C2=C(c3cccc(Oc4ccccc4)c3)C(=O)NC2=O)c2ccccc21 | 1.68 |
| CC(C)(C)OC(=O)NCCCn1cc(C2=C(c3csc4ccccc34)C(=O)NC2=O)c2ccccc21 | > 20 |
| NCCCn1cc(C2=C(c3ccco3)C(=O)NC2=O)c2ccccc21 | 1.49 |
| NCCCn1cc(C2=C(c3cccnc3)C(=O)NC2=O)c2ccccc21 | 0.54 |
| Cc1[nH]c2ccccc2c1C1=C(c2cn(CCCNC(=O)OC(C)(C)C)c3ccccc23)C(=O)NC1=O | 7.61 |
| NCCCn1cc(C2=C(c3ccncc3)C(=O)NC2=O)c2ccccc21 | 1.6 |
| NCCCn1cc(C2=C(c3ccc4ccccc4c3)C(=O)NC2=O)c2ccccc21 | 0.5 |
| CN1C(=O)C(c2c[nH]c3ccc(Br)cc23)=C(c2cn(CCCN)c3ccccc23)C1=O | > 20 |
| CN1C(=O)C(c2csc3ccccc23)=C(c2cn(CCCN)c3ccccc23)C1=O | 2.32 |
| NCCCn1cc(C2=C(c3ccnc4ccccc34)C(=O)NC2=O)c2ccccc21 | 0.63 |
